The values below come from patent US20040023990A1, “Use of pyrazolo[4,3-d]pyrimidines” (priority 2000, published 2004).

For orientation: melting point means the temperature, or range, at which the solid turns liquid.

Regarding `CCCc1nn(C)c2c(NCc3ccc(OC)c(Cl)c3)nc(CCC(=O)O)nc12` [Example 2, 3-[7-(3-chloro4-methoxybenzylamino)-1-methyl-3-propyl-1H-pyrazolo-[4,3-d]pyrimidin-5-yl]propionic acid], the melting point stood at 178 °C.
